Source: ChEMBL document CHEMBL1121932, “Structure-anti-Parkinson activity relationships in the aminoadamantanes. Influence of bridgehead substitution” (J Med Chem, 1982)

How the values were obtained:
[1] = Partition coefficient (logP); format: physicochemical; details: octanol/water
Mus musculus [2] = assay: Stimulation of spontaneous locomotor activity of compound was measured in mice at a dose of 0.025 mmol/kg); format: functional; design: unit not given here
Mus musculus [3] = assay: Stimulation of spontaneous locomotor activity of compound was measured in mice at a dose of 0.05 mmol/kg); format: functional; design: unit not given here
Mus musculus [4] = assay: Stimulation of spontaneous locomotor activity of compound was measured in mice at a dose of 0.10 mmol/kg); format: functional; design: unit not given here
Mus musculus [5] = assay: Stimulation of spontaneous locomotor activity of compound was measured in mice at a dose of 0.15 mmol/kg); format: functional
Mus musculus [6] = assay: Stimulation of spontaneous locomotor activity of compound was measured in mice at a dose of 0.20 mmol/kg); format: functional
Mus musculus [7] = assay: Stimulation of spontaneous locomotor activity of compound was measured in mice at a dose of 0.30 mmol/kg); format: functional
Mus musculus [8] = assay: Modification of circling behavior in mice with unilateral striatal lesions produced by 6-hydroxydopamine injection was measured at a dose of 0.05 mmol/kg; format: functional
Mus musculus [9] = assay: Modification of circling behavior in mice with unilateral striatal lesions produced by 6-hydroxydopamine injection was measured at a dose of 0.10 mmol/kg; format: functional
Mus musculus [10] = assay: Modification of circling behavior in mice with unilateral striatal lesions produced by 6-hydroxydopamine injection was measured at a dose of 0.15 mmol/kg; format: functional
Mus musculus [11] = assay: Modification of circling behavior in mice with unilateral striatal lesions produced by 6-hydroxydopamine injection was measured at a dose of 0.20 mmol/kg; format: functional
Mus musculus [12] = assay: Stimulation of spontaneous locomotor activity of compound was measured in mice at a dose of 0.0125 mmol/kg); format: functional
Mus musculus [13] = assay: Stimulation of spontaneous locomotor activity of compound was measured in mice at a dose of 0.1 mmol/kg); format: functional
Mus musculus [14] = assay: Stimulation of spontaneous locomotor activity of compound was measured in mice at a dose of 0.2 mmol/kg); format: functional
Mus musculus [15] = assay: Stimulation of spontaneous locomotor activity of compound was measured in mice at a dose of 0.4 mmol/kg); Lethal; format: functional, organism-based
Mus musculus [16] = assay: Modification of circling behavior in mice with unilateral striatal lesions produced by 6-hydroxydopamine injection was measured at a dose of 0.1 mmol/kg; format: functional
Mus musculus [17] = assay: Modification of circling behavior in mice with unilateral striatal lesions produced by 6-hydroxydopamine injection was measured at a dose of 0.013 mmol/kg; format: functional
Mus musculus [18] = assay: Stimulation of spontaneous locomotor activity of compound was measured in mice at a dose of 0.4 mmol/kg); format: functional
Mus musculus [19] = assay: Modification of circling behavior in mice with unilateral striatal lesions produced by 6-hydroxydopamine injection was measured at a dose of 0.2 mmol/kg; format: functional
Mus musculus [20] = assay: Stimulation of spontaneous locomotor activity of compound was measured in mice at a dose of 0.01 mmol/kg); format: functional
Mus musculus [21] = assay: Stimulation of spontaneous locomotor activity of compound was measured in mice at a dose of 0.04 mmol/kg); format: functional
Mus musculus [22] = assay: Modification of circling behavior in mice with unilateral striatal lesions produced by 6-hydroxydopamine injection was measured at a dose of 0.027 mmol/kg; format: functional
Mus musculus [23] = assay: Stimulation of spontaneous locomotor activity of compound was measured in mice at a dose of 0.02 mmol/kg); format: functional

Structure (SMILES) | logP [1] | Activity (Mus musculus [2]) | Activity (Mus musculus [3]) | Activity (Mus musculus [4]) | Activity (Mus musculus [6]) | Net turns/min (Mus musculus [9]) | Net turns/min (Mus musculus [10]) | Activity (Mus musculus [13]) | Activity (Mus musculus [14]) | further results
CCC12CC3CC(CC(N)(C3)C1)C2 | 3.4 | 61 | 147 | 237 | 522 | 1.2 | 2 | – | – | Activity (Mus musculus [5]): 432; Activity (Mus musculus [7]): 368; Net turns/min (Mus musculus [8]): 1.3; Net turns/min (Mus musculus [11]): 1.2
CC12CC3CC(C)(C1)CC(N)(C3)C2 [MEMANTINE] | – | 264 | 377 | 916 | 1378 | 2.6 | 4.3 | – | – | Activity (Mus musculus [12]): 181; Net turns/min (Mus musculus [8]): 1; Net turns/min (Mus musculus [11]): 2.6
CC12CC3CC(C1)CC(N)(C3)C2 | 3.01 | – | 37 | – | – | – | – | 144 | 383 | –
CCCC12CC3CC(CC(N)(C3)C1)C2 | 3.76 | 75 | 75 | 94 | – | – | – | – | – | –
CC12CC3(C)CC(C)(C1)CC(N)(C2)C3 | 4.01 | 148 | 264 | – | – | – | 1.2 | 351 | 472 | Activity (Mus musculus [15]): Lethal; Net turns/min (Mus musculus [16]): 1
CN1CCc2cccc3c2[C@H]1Cc1ccc(O)c(O)c1-3 [APOMORPHINE] | – | – | – | – | – | – | – | – | – | Net turns/min (Mus musculus [17]): 2.6
NC12CC3CC(CC(C3)C1)C2 [AMANTADINE] | 2.44 | – | 87 | – | – | – | – | 201 | 243 | Activity (Mus musculus [18]): 44; Net turns/min (Mus musculus [19]): 1.1
CCC12CC3CC(N)(C1)CC(CC)(C3)C2 | 4.36 | 154 | 383 | 716 | 478 | 1.6 | – | – | – | –
CC(N)Cc1ccccc1 (stereo not drawn) [AMPHETAMINE] | – | – | – | – | – | – | – | – | – | Activity (Mus musculus [20]): 177; Activity (Mus musculus [21]): 993; Net turns/min (Mus musculus [22]): 5.5; Activity (Mus musculus [23]): 562
